3 compounds from ChEMBL document CHEMBL1147335, “New leukotriene B4 receptor antagonist: leucettamine A and related imidazole alkaloids from the marine sponge Leucetta microraphis” (J Nat Prod, 1993) can be followed below.

The target of assay [1] is T1, Leukotriene B4 receptor 1 (Homo sapiens, UniProt Q15722). In words: Displacement of [3H]LTB4 from LTB4 receptor expressed in human U937 cell membrane. Format: cell membranes, U-937.
Assay [2] addresses T1, Leukotriene B4 receptor 1. Put plainly: Binding affinity to LTB4 receptor in human U937 cells by whole cell assay. Format: cell-based, U-937.
Assay [3] addresses T1, Leukotriene B4 receptor 1. In words: Antagonist activity at LTB4 receptor in fura-2 loaded human U937 cells assessed as inhibition of LTB4-induced calcium mobilization. It is filed as functional, cell-based, U-937.

T1 sequence (Q15722 whole entry): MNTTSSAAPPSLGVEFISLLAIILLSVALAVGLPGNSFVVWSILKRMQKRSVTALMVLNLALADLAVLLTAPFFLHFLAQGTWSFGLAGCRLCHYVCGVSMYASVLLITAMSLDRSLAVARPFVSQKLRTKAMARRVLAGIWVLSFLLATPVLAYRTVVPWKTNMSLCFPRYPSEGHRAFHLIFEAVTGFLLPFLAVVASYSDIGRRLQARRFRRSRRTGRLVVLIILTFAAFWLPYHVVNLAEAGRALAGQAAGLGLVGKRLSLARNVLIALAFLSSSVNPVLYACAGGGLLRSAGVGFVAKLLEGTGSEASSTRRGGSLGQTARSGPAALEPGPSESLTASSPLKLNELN

In assay [1], `CN1C(=N)N(C)/C(=N/c2nc(Cc3ccc4c(c3)OCO4)c(Cc3ccc4c(c3)OCO4)n2C)C1=O` [LEUCETTAMIDINE] gave a 50% inhibitory concentration (IC50) of 15.6 µM and a Ki of 5.3 µM.

On to `Cn1c(N)nc(Cc2ccc3c(c2)OCO3)c1Cc1ccc2c(c1)OCO2` [LEUCETTAMINE A], for which the results for the concentration for half-maximal inhibition (IC50) in assay [1], in assay [2] and in assay [3] were 4 µM, 0.75 µM and 4.6 µM, respectively. In addition, the Ki in assay [1] came to 1.3 µM.

In the case of `CN1C(=O)/C(=C/c2ccc3c(c2)OCO3)N=C1N` [LEUCETTAMINE B], the affinity in assay [1], expressed as Ki, was 100 µM.
